SMILES strings stand for the structures. Where only a bound is given, the exact number is not on record here.

For this experiment, the target named is T1, human Werner helicase (WRN-BV08, Uniprot Q14191, amino acids 517-1235 with L1074F point mutation) (Homo sapiens, UniProt Q14191, L1074F).
T1 construct: Uniprot Q14191, amino acids 517-1235 with L1074F point mutation; TEV-cleavable 8×His (C, cleaved yes); made in house; host or cells: Sf9 insect cells (baculovirus)
T1 sequence (Q14191 with tags, fused parts or gaps L1074F limits assumed): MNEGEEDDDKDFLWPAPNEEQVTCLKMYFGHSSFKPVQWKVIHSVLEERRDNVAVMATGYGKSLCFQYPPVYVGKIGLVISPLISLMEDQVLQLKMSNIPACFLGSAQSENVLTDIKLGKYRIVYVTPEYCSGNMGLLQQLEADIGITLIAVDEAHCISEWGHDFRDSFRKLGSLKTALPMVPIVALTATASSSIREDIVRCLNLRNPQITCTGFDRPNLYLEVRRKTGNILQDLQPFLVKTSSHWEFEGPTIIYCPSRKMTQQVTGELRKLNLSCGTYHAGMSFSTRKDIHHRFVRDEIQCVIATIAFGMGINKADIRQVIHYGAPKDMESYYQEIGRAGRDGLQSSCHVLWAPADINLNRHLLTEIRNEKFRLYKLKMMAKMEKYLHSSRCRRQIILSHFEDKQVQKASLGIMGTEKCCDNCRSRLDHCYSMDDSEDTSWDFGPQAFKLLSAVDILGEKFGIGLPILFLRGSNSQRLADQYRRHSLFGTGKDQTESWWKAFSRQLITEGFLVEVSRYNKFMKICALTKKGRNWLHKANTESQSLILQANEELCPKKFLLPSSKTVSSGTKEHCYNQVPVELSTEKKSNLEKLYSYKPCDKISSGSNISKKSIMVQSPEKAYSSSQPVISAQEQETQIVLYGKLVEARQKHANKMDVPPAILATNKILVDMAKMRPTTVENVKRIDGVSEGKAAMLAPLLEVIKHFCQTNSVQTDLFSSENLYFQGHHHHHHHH
Briefly: WRN (BV08) ADP-Glo Assay. The class given is biochemical. Conditions: 0.15 nM WRN, 5 μM ATP, 0.1 nM DNA duplex, 15 min preincubation, 60 min at 25° C., pH 7.5, 1% DMSO; read-out: ADP-Glo_hWRN_IC50. The method, boiled down: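 Percent inhibition was normalised to DMSO (max) and 20 μM NSC-617145 (min) controls from ADP-Glo luminescence, and IC50 values came from a four-parameter fit. The reaction ran 60 min at 25 °C with 0.15 nM WRN, 5 μM ATP and 0.1 nM duplex DNA.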
As for `O=C(Cc1ccc(-c2ccc(F)cc2)cc1C(F)F)N(Cc1ccncc1)C1C=CS(=O)(=O)C1` (centres unmarked) [I-196, 2-[3-(difluoromethyl)-4′-fluoro-[1,1′-biphenyl]-4-yl]-N-(1,1-dioxo-2,3-dihydro-1lambda6-thiophen-3-yl)-N-[(pyridin-4-yl)methyl]acetamide], the IC50 lay within 0.5 to 5 µM.

`COc1cc(CN(C(=O)C(c2ccc(-c3ccc(F)c(F)c3)cc2F)n2cccn2)[C@@H]2C=CS(=O)(=O)C2)ccn1` (single isomer, unassigned) [I-672, (2R*)-N-[(3R)-1,1-dioxo-2,3-dihydro-1lambda6-thiophen-3-yl]-N-[(2-methoxypyridin-4-yl)methyl]-2-(1H-pyrazol-1-yl)-2-{3,3′,4′-trifluoro-[1,1′-biphenyl]-4-yl}acetamide]: the IC50 fell in the range of 5 to 10 µM.

Consider `COc1cc(CN(C(=O)Cc2ccc(-c3ccc(F)cc3)cn2)C2C=CS(=O)(=O)C2)ccn1` (centres unmarked) [I-175, N-(1,1-dioxo-2,3-dihydro-1lambda6-thiophen-3-yl)-2-[5-(4-fluorophenyl)pyridin-2-yl]-N-[(2-methoxypyridin-4-yl)methyl]acetamide], for which the IC50 is 0.5 to 5 µM.

As to `COc1cc(CN(C(=O)C(c2ccc(-c3ccc(F)c(F)c3)cc2F)n2ncc3ccncc32)[C@@H]2C=CS(=O)(=O)C2)ccn1` (stereo partly drawn) [I-751, N-[(3R)-1,1-dioxo-2,3-dihydro-1lambda6-thiophen-3-yl]-N-[(2-methoxypyridin-4-yl)methyl]-2-{1H-pyrazolo[3,4-c]pyridin-1-yl}-2-{3,3′,4′-trifluoro-[1,1′-biphenyl]-4-yl}acetamide], the IC50 was in the range of 10 to 50 µM.

As for `CN(C)C(=O)C(C(=O)N(Cc1nc(C2CC2)cs1)C1C=CS(=O)(=O)C1)c1ccc(-c2ccc(F)c(F)c2)cc1F` (centres unmarked) [I-25, N′-[(4-cyclopropyl-1,3-thiazol-2-yl)methyl]-N′-(1,1-dioxo-2,3-dihydro-1lambda6-thiophen-3-yl)-N,N-dimethyl-2-{3,3′,4′-trifluoro-[1,1′-biphenyl]-4-yl}propanediamide], the IC50 was under 0.5 µM.

As to `O=C(Cc1ccc(-n2cccc2)cc1F)N(Cc1ccncc1)C1C=CS(=O)(=O)C1` (centres unmarked) [I-161, N-(1,1-dioxo-2,3-dihydro-1lambda6-thiophen-3-yl)-2-[2-fluoro-4-(1H-pyrrol-1-yl)phenyl]-N-[(pyridin-4-yl)methyl]acetamide], the IC50 lay within 0.5 to 5 µM.

With `CN(C)C(=O)C(C(=O)N(Cc1ccnc(C(C)(C)O)c1)C1C=CS(=O)(=O)C1)n1cc(-c2ccccc2)cn1` (centres unmarked) [I-594, N′-(1,1-dioxo-2,3-dihydro-1lambda6-thiophen-3-yl)-N′-{[2-(2-hydroxypropan-2-yl)pyridin-4-yl]methyl}-N,N-dimethyl-2-(4-phenyl-1H-pyrazol-1-yl)propanediamide], the IC50 was 0.5 to 5 µM.

Regarding `O=C(Cc1cccc(C(F)(F)F)c1)N(Cc1ccncc1)C1C=CS(=O)(=O)C1` (centres unmarked) [I-536, N-(1,1-dioxo-2,3-dihydro-1lambda6-thiophen-3-yl)-N-[(pyridin-4-yl)methyl]-2-[3-(trifluoromethyl)phenyl]acetamide], the IC50 was over 50 µM.

As for `CC(=O)N(C)C(C(=O)N(Cc1ccncc1)C1C=CS(=O)(=O)C1)c1ccc(-n2cccc2)cc1` (centres unmarked) [I-377, N-(1,1-dioxo-2,3-dihydro-1lambda6-thiophen-3-yl)-2-(N-methylacetamido)-N-[(pyridin-4-yl)methyl]-2-[4-(1H-pyrrol-1-yl)phenyl]acetamide], the IC50 was over 50 µM.

Take `COc1ccc(CN(C(=O)Cn2cc(-c3ccc(F)c(F)c3)cn2)C2C=CS(=O)(=O)C2)cn1` (centres unmarked) [I-762, 2-[4-(3,4-difluorophenyl)-1H-pyrazol-1-yl]-N-(1,1-dioxo-2,3-dihydro-1lambda6-thiophen-3-yl)-N-[(6-methoxypyridin-3-yl)methyl]acetamide]: the IC50 lay within 0.5 to 5 µM.

Take `COc1cc(CN(C(=O)Cn2cc(-c3ccc(F)cc3)cn2)[C@@H]2C=CS(=O)(=O)C2)ccn1` [I-26, N-[(3R)-1,1-dioxo-2,3-dihydro-1lambda6-thiophen-3-yl]-2-[4-(4-fluorophenyl)-1H-pyrazol-1-yl]-N-[(2-methoxypyridin-4-yl)methyl]acetamide]: the IC50 was under 0.5 µM.

Source of the values: patent US20260297070A1, “CYCLIC [COMPOUND LEFT OUT] WRN INHIBITORS” (Nimbus Wadjet, Inc., priority 2023, published 2026).
